Test results from article PMC12093383, “Protoporphyrin IX-Derived Ruthenium(II) Complexes for Photodynamic Therapy in Gastric Cancer Cells” (Inorganic Chemistry, 2025).
Read-outs that look alike come from different tables or passages of the source.

How the values were obtained:
[1] = Shake-flask partition coefficient, 1-octanol/PBS; format: physicochemical; conditions: average of three independent experiments at 27 °C
Source text: The n-octanol/water partition coefficient (log Po/w) is a well-established parameter that helps to predict the biological activity of drugs and other biologically active compounds.[56] The so-called “shake-flask” method was adopted to determine the partition coefficient using 1-octanol and PBS (phosphate-buffered saline) as solvents.[57] All the porphyrin derivatives presented low lipophilicity values. At the same time, the chlorin compounds were much more lipophilic as expected due to the reduction of one of the pyrrole rings and the formation of the new ring in the chlorin.
The partition coefficient (log Po/PBS) of each compound was determined experimentally by the “shake-flask” method at room temperature following reported methods.[57],[96] A mixture of 1-octanol and PBS in equal amounts was shaken for 24 h, after which the phases were allowed to separate for 24 h. Then, a 1 × 10^–5 M solution of each compound is prepared in 1-octanol/PBS (1:1), and the mixture is left to stir for 24 h. After 24 h of stirring, the mixture is left for 24 h to separate the two phases. Finally, the concentration of each compound in the two phases is determined by UV–vis spectroscopy. logP was determined by the following eq 3.[97] [drawing 3] 3 Where Aap is the absorbance after partition, and Abp is the absorbance before partition.

AGS gastric cancer cells = test: MTT survival assay, dark or white-light irradiation; format: cell-based, human; conditions: for IC50: 8 h incubation, MTT after 48 h; for PI (phototoxicity index): IC50 dark/light ratio
Protocol: To assess the anticancer potential of compounds, the cytotoxicity was evaluated on the gastric cancer cell line AGS. The cells were treated in the dark for 8 h with increasing concentrations of the different compounds (Table 2). Cisplatin was used as a positive cytotoxic and clinically used drug control, and verteporfin (VP) or protoporphyrin-IX (PpIX) were used as positive PDT controls. Cells were then irradiated for 15 min with white light or kept in the dark and further cultivated for 48h in the dark. An MTT test was then performed to evaluate the impact of the different treatments on cell survival. […] The lower cytotoxicity of Ru-2 is most likely due to its low stability in biological media, as determined by stability tests in PBS/DMSO.
The human gastric adenocarcinoma (AGS) cell line was acquired from ATCC (Manassa, VA). AGS cells were cultured in RPMI 1640 medium (Roswell Park Memorial Institute) containing 10% fetal bovine serum (FBS) at 37 °C in a humidified atmosphere of 95% air and 5% CO2.
The antiproliferative activity of cancer cells was determined by the 3-(4,5-dimethylthiazol-2-yl)-2,5-diphenyltetrazolium bromide (MTT) assay. Cells were seeded at 10.000 cells per well (200 μL) in Cellstar 96-well plates (Greiner Bio-One) and further incubated for 24 h. Cells were treated with each compound at different concentrations for 8 h in the dark. After this time, the medium was removed, fresh medium was added, and cells were kept in the dark or irradiated with white light for 15 min. Subsequently, the plates were incubated in the dark for an additional 48 h, and the MTT assay was performed as previously described in the literature.[34] Measurements were performed at 550 nm with the Tristar2Multimode Reader (Berthold Technologies).

[2] = Fluorescence quantum yield; format: physicochemical; conditions: DMSO, ligands excited at 503 nm, ruthenium complexes at 573 nm, relative to verteporfin
Protocol: Emission spectra were measured in DMSO. The free ligands were excited at 503 nm, while the ruthenium complexes were excited at 573 nm. For the calculation of fluorescence quantum yield, verteporfin (Φf = 0.0085) was used as a reference.[46] In all metal-free compounds, an intense emission band at approximately 630–670 nm and a small band at approximately 700–750 nm were observed, assigned to Q (0–0) and Q (1–0) transitions, respectively.[48] […] A similar behavior has been observed in palladium(II) and nickel(II) metaloporphyrins, where the fluorescence was quenched due to electron or energy transfer.[49]
The fluorescence quantum yields were determined using verteporfin in DMSO as a reference (Φf = 0.0085).[46],[89] The free ligands were excited at 503 nm, and the ruthenium complexes at 573 nm. The quantum yield was calculated following eq 1.[90],[91] [drawing 1] 1 Where ST and X are standard and analyte, respectively, Φf is the fluorescence quantum yield, Grad is the gradient from the area of integration fluorescence intensity vs absorbance, and ηX and ηST are the refractive index of the solvent used to measure the fluorescence spectrum of the analyte and the standard, respectively.

LC3B = test: Western blot of LC3B-I/II in AGS cells; format: cell-based, human; conditions: IC50 concentration 4 h, white light 15 min, 24 h in the dark
Source text: (§1) The therapeutic effects of PDT treatment on cancer cells are thought to be mainly related to ROS production, which are highly reactive and cytotoxic species that can induce cell death by apoptosis.[62] It has also been shown that ruthenium compounds can induce different cell death pathways.[63],[64] For these reasons, we initially analyzed by Western blot the expression of cleaved caspase 3 and PARP, which are two well-known markers for programmed cell death apoptosis.[65]−[70] […] The cells were then further cultivated in the dark for 24 h. […] Then, the protein expression of CHOP, a key component of the endoplasmic reticulum (ER) stress-mediated apoptosis pathway and known to be induced by ruthenium compounds, was evaluated.[71],[72] […] To investigate this, the expression and conversion of LC3B–I to LC3B–II was analyzed by Western blot (Figure 11).
(§2) Figure 11 Effects of photoactivation of 1, Ru-1, 3B, and Ru-3B on protein expression on different cell death markers in AGS gastric cancer cells. […] Protein extraction was performed, and expression of the different markers was determined by Western blot. […]
(§3) Cells were then lysed in lysis buffer (50 mM Tris–HCl pH 6.7, NaCl 150 mM, NP40 1%). Total protein concentration was determined using Bradford assay and adjusted to the same quantity (50 μg) for each experiment. […] Protein bands were quantified using ImageJ software.[99] […]

COX2 = test: Western blot of COX2 in AGS cells; format: cell-based, human; conditions: IC50 concentration 4 h; for COX2 expression in the dark: kept in the dark
Protocol: (§4) Figure 12 Effects of photoactivation of 1, Ru-1, 3B and Ru-3B on protein expression of ferroptosis and inflammation markers in AGS gastric cancer cells. […] (a) Expression of the different markers was determined by Western blot. GAPDH was used as a loading control. Representative Western blot of three independent experiments. ctl = control, untreated cells. Graphs represent the quantification of three independent experiments of GPX4 (b) and COX2 (c) expression, compared to not-treated AGS cells (ctl) and normalized to GAPDH expression. Bars above the colons indicate the comparison of dark versus light for each compound. The dark and light results of each compound were compared to those of the respective untreated control condition (ctl). Statistical analysis: 2-way Anova *<0.05, **<0.01, ***<0.001, ns = not-significant.
COX2 is known for its central role in inflammation and prostaglandins (PGs) production. In normal cells, COX2 expression is almost absent, whereas in cancer cells, it is frequently overexpressed.[84] Importantly, it has been shown that in cancers, COX2 is not only a mediator of inflammation but could also be a mediator of oxidative stress and inhibition of apoptosis, as well as cancer cell proliferation.[85]
Cells were then lysed in lysis buffer (50 mM Tris–HCl pH 6.7, NaCl 150 mM, NP40 1%). Total protein concentration was determined using Bradford assay and adjusted to the same quantity (50 μg) for each experiment. A total of 30 μg of proteins were resolved by 6–15% SDS-PAGE (depending on protein molecular weight) and transferred to nitrocellulose blotting membranes according to standard methods. Membranes were blocked with blocking buffer (containing 5% milk powder or 1% BSA) for 1 h at room temperature, then washed three times with TBST or PBST (containing 0.1% Tween-20) and incubated with primary antibodies at 4 °C overnight. The following day, the membranes were washed thrice with […]. […] Protein bands were quantified using ImageJ software.[99] […]

GPX4 = test: Western blot of GPX4 in AGS cells; format: cell-based, human; conditions: IC50 concentration 4 h, white light 15 min, 24 h in the dark
Protocol: Ferroptosis, another form of nonapoptotic cell death, can promote inflammation and is triggered by iron-catalyzed lipid peroxidation via Fenton-type reactions, where the main ROS responsible for lipid damage are hydroxyl radical and superoxide radical.[81],[82] Glutathione peroxidase (GPX4) can suppress lipid peroxidation and protect cells from ferroptosis.[83] To investigate the impact of the different compounds on GPX4 expression, AGS cells were treated as described above, and then GPX4 expression was analyzed by Western blot (Figure 12a).
as §4, with “Bars above the colons indicate the comparison of dark versus light for each compound. The dark and light results of each compound were compared to those of the respective untreated control condition (ctl). Statistical analysis: 2-way Anova *<0.05, **<0.01, ***<0.001, ns = not-significant.” left out
as §3

[3] = test system: cleaved caspase 3 and PARP; test: Western blot of apoptosis markers in AGS cells; format: cell-based, human; conditions: IC50 concentration 4 h, white light 15 min, 24 h in the dark
Source text: as §1, §2, §3

[4] = Homo sapiens, AGS, kept in dark, N = 3, read-out: IC50 dark
[5] = Homo sapiens, AGS, white light 15 min, N = 3, read-out: IC50 light

| log PO/PBS [1] | Φf luminescence quantum yield [2] [%] | SMILES | IC50 (AGS gastric cancer cells; [4]) [nM] | IC50 (AGS gastric cancer cells; [5]) [nM] | LC3B-I/II expression (LC3B) | COX2 expression in the dark (COX2) | IC50 (AGS gastric cancer cells; white light 15 min, N = 3, read-out: IC50 light) [nM] | PI (phototoxicity index) (AGS gastric cancer cells) | GPX4 expression (GPX4) | IC50 (AGS gastric cancer cells; kept in dark, N = 3, read-out: IC50 dark) [nM] | cleavage of caspase 3 and PARP [3] | COX2 expression upon light irradiation (COX2; white light 15 min, 24 h in the dark, vs untreated) |
| --- | --- | --- | --- | --- | --- | --- | --- | --- | --- | --- | --- | --- |
| 1.478 ± 0.083 | 1.2 | C=Cc1c(C)c2cc3nc(cc4[nH]c(cc5nc(cc1[nH]2)C(C)=C5CCC(=O)OC)c(CCC(=O)OC)c4C)C1(C)C3=CCC(C(=O)OC)=C1C(=O)OC (stereo not drawn) [3A] | > 100000 | 100 ± 60 |  |  |  |  |  |  |  |  |
| 1.661 ± 0.088 | 1.2 | C=Cc1c(C)c2cc3nc(cc4[nH]c(cc5nc(cc1[nH]2)C1(C)C5=CCC(C(=O)OC)=C1C(=O)OC)c(C)c4CCC(=O)OC)C(CCC(=O)OC)=C3C (stereo not drawn) [3B] | > 100000 | 180 | marked induction of LC3B–I/II expression | reduction in COX2 expression in the dark | 200 ± 21 |  |  |  |  |  |
| 1.368 ± 0.042 | 1.0 | C=Cc1c(C)c2cc3nc(cc4[nH]c(cc5nc(cc1[nH]2)C(C)=C5CCC(=O)OCc1ccccc1)c(CCC(=O)OCc1ccccc1)c4C)C1(C)C3=CCC(C(=O)OC)=C1C(=O)OC (stereo not drawn) [4A] | > 100000 | 2500 ± 231 |  |  |  | >40 |  |  |  |  |
| 1.682 ± 0.176 | 1.0 | C=Cc1c(C)c2cc3nc(cc4[nH]c(cc5nc(cc1[nH]2)C1(C)C5=CCC(C(=O)OC)=C1C(=O)OC)c(C)c4CCC(=O)OCc1ccccc1)C(CCC(=O)OCc1ccccc1)=C3C (stereo not drawn) [4B] | > 100000 | 2800 ± 265 |  |  |  | >36 |  |  |  |  |

The remaining lines, values behind:

| SMILES | log PO/PBS [1] | Φf luminescence quantum yield [2] [%] | IC50 (AGS gastric cancer cells; [4]) [nM] | IC50 (AGS gastric cancer cells; [5]) [nM] | LC3B-I/II expression (LC3B) | COX2 expression in the dark (COX2) | IC50 (AGS gastric cancer cells; white light 15 min, N = 3, read-out: IC50 light) [nM] | PI (phototoxicity index) (AGS gastric cancer cells) | GPX4 expression (GPX4) | IC50 (AGS gastric cancer cells; kept in dark, N = 3, read-out: IC50 dark) [nM] | cleavage of caspase 3 and PARP [3] | COX2 expression upon light irradiation (COX2; white light 15 min, 24 h in the dark, vs untreated) |
| --- | --- | --- | --- | --- | --- | --- | --- | --- | --- | --- | --- | --- |
| C=CC1=C(C)c2cc3[nH]c(cc4nc(cc5[nH]c(cc1n2)c(C)c5CCC(=O)O)C(CCC(=O)O)=C4C)c(C)c3C=C [PpIX, protoporphyrin IX] |  |  | > 100000 | 500 |  | reduction in COX2 expression in the dark |  | >200 | decrease in GPX4 expression |  |  |  |
| N.N.[Cl][Pt][Cl] [cisplatin, reference compound] |  |  |  |  |  |  |  |  |  | 29000 |  |  |
| C=CC1=C(C)c2cc3[nH]c(cc4nc(cc5[nH]c(cc1n2)c(C)c5CCC(=O)OC)C(CCC(=O)OC)=C4C)c(C)c3C=C [compound 1] | 0.957 ± 0.056 | 0.80 | > 100000 | 1700 ± 184 |  |  |  | > 17 |  |  | as efficient as VP | significantly reduce COX2 expression |
| C=CC1=C(C)c2cc3[nH]c(cc4nc(cc5[nH]c(cc1n2)c(C)c5CCC(=O)OCc1ccccc1)C(CCC(=O)OCc1ccccc1)=C4C)c(C)c3C=C [compound 2] | 1.063 ± 0.142 | 0.80 | > 100000 | 2600 ± 100 |  |  |  | > 18 |  |  |  |  |
